Measured values as given in patent US11278526B2, “Compounds and methods for treating lupus” (RECEPTOS LLC, priority 2016, dated 2022).
Entries after “also recorded” stand apart in the source; their conditions may differ.

Assays:
Type in all cases: in vivo
[1] = system: NZBWF1 mice; assay: Survival in NZBWF1 SLE mouse model; conditions: 0.3, 1.0, 3.0 mg/kg PO QD, Logrank p=0.0229, 0.0308, 0.0201
Experimental: As in Example 2, compound 5 was tested for efficacy in the same NZB×NZW F1 (“NZBWF1”) mouse model for SLE as compound 148. Six groups of NZBWF1 mice (Jackson Laboratories, stock #100008) were used in the study and were acclimated to the research facility for 6 weeks prior to the start of the study. Weekly measurements of proteinuria (excess serum proteins present in the urine) and body weight began at 20 weeks of age. At 22 weeks of age, the mice were assigned to groups in a balanced manner in order to achieve average body weight and average proteinuria measurements across the groups. One “naive” group consisting of 10 mice was euthanized at the start of treatment and used as a source of tissue for analysis. Treatment began at 22 weeks of age.
The five treatment groups were administered cyclophosphamide (positive control, 20 mice; introduced gradually to reduce toxicity (IP, once a week, 10 mg/kg at Weeks 22 and 23 and 50 mg/kg from Week 24 to the end of the study)), vehicle (negative control, 20 mice), or compound 5 (three groups of 20 mice), beginning at 22 weeks of age and observed over the course of 20 weeks. The three groups dosed with compound 5 received 0.3, 1.0, and 3.0 mg/kg PO QD, respectively (20 mice per dosage). Surviving animals were sacrificed at 42 weeks. […] Disease development was evaluated as disclosed in the following examples.

[2] = system: NZBWF1 mice; assay: Kidney lesion histology scoring (glomerular, tubular and interstitial lesions); conditions: for Tubular and interstitial lesions: 0.3, 1.0, 3.0 mg/kg PO QD
Description: Kidney lesions are another indicator of SLE progression. Kidney slides from test mice were stained with H&E and PAS, to evaluate interstitial infiltrates, tubular atrophy, and interstitial fibrosis (collectively, “tubular and interstitial lesions”), mesangial expansion, endocapillary and extracapillary proliferation, glomerular deposits, (collectively, “glomerular lesions”). Each lesion subtype was scored using a 4 point scale: 0=not present, 1=mild, 2=moderate and 3=severe. Average scores were calculated by multiplying the incidence of each grade by the value of the grade for each of the seven lesions and then adding the scores for the group. Thus, an incidence of 3 animals for grade 3 of a lesion equals a score of 9. The scores were then divided by the number of animals scored in the group.
All slides were scored blind by assigning a random number to each animal and then affixing a temporary label with the random number to the slides. Scores were recorded using Graham StarTox software, version 3.1.0. The StarTox software has a setting that limits the screen display to the random number only, without group or animal number information for use while reading the slides.
As in Example 5, left kidneys were weighed (FIG. 43) following termination at 42 weeks.

[3] = system: NZBWF1 mice; assay: Spleen weight at 42 weeks
Experimental: To determine the effects of compound 148 on inflammatory infiltrate in the spleen, spleens were weighed at 42 weeks. […] Splenocyte suspensions were then prepared. RBCs were lysed and splenocytes were counted.
To determine the effects of compound 5 on inflammatory infiltrate in the spleen, spleens were weighed at 42 weeks. […] The 3 mg/kg dose of compound 5 trended lower indicating fewer inflammatory infiltrates in this organ. Splenocyte suspensions were prepared for all three doses. RBCs were lysed and splenocytes were counted.

[4] = system: CD4+ T cells, CD8+ T cells, and CD19+ B cells; assay: Peripheral lymphocyte counts from whole blood by flow cytometry; conditions: NZBWF1 mice
Experimental: Lymphocyte counts were measured from whole blood taken at 23, 31, and 36.5 weeks using flow cytometry. Cells were gated for CD4+ T cells, CD8+ T cells, and CD19+ B cells. […] Serum blood urea nitrogen (BUN) was also measured at termination to assess kidney function.

[5] = system: NZBWF1 mice; assay: Tertiary Lymphatic Tissue (TLT) scoring in kidney histology
Description: To directly assay disease progression, left kidney histology was observed and sections were stained using H&E (left kidney fixed in 4% PFA prior to staining for infiltrating PMN, lymphocytes, and TLTs) or PAS (for analysis of glomerular glycogen and glycoproteins). No neutrophils were observed. The number of aggregates was counted per section.

[6] = system: inflammatory and immune response genes; assay: Kidney mRNA levels of inflammatory and immune response genes (QuantiGene Multiplex Assay); conditions: NZBWF1 mice; 3 mpk PO; n=5
Experimental: As explained above, SLE is characterized by aberrant recognition of healthy “self” tissue as antigenic. The resulting immune response is characterized by inflammation. To measure SLE status, mRNA levels were measured for an array of inflammatory and immune response genes from kidneys collected at termination or week 23 (naïve) and stored in RNAlater (n=5). mRNA was quantified using QuantiGene Multiplex Assay.

[7] = system: IFNα; assay: Serum IFNα by ELISA; conditions: NZBWF1 mice; all treatment groups 0.3, 1.0, 3.0 mg/kg PO QD; weeks 23, 29, 36, 42; assay sensitivity 7.48 pg/ml
Experimental: (§1) As discussed above, IFNAR1 (Interferon alpha receptor 1) and its ligand IFNα are important modulators of lupus-associated autoimmune response in humans. Serum IFNα was measured by ELISA (eBioscience kit) at 23, 29, 36, and 42 weeks (FIG. 17). Assay sensitivity was 7.48 pg/ml (dotted line). […] However, several samples at multiple time points were below the sensitivity of the assay (data not shown), consistent with reports that the NZBWF1 model has a weak IFNα signature. To determine whether compound 148 affected IFNAR1 expression, percent surface expression and MFI expression were measured in pDC cells at termination (FIGS. 18A and 18B, respectively).

[8] = system: IFNAR1; assay: IFNAR1 expression in splenic pDC cells; conditions: NZBWF1 mice, at termination, after five months of treatment
Experimental: as §1

SMILES: CC(C)Oc1ccc(-c2nc(-c3cccc4c3CC[C@@H]4NCCO)no2)cc1C#N [compound 5, (S)-5-(3-(1-(2-hydroxyethylamino)-2,3-dihydro-1H-inden-4-yl)-1,2,4-oxadiazol-5-yl)-2-isopropoxy benzonitrile]
- Survival compared to vehicle [1]: improved survival compared to vehicle treated animals
- Glomerular lesion score ([2]; 0.3 mg/kg PO QD (compound 5 study)): glomerular lesion score less than to that of the vehicle control, but not significant
- Severity of glomerular lesions ([2]; 1.0 mg/kg and 3.0 mg/kg PO QD (compound 5 study)): dose-independent decrease in the severity of glomerular lesions
- Tubular and interstitial lesions compared to cyclophosphamide ([2]; 3.0 mg/kg PO QD (compound 5 study)): not statistically different from treatment with cyclophosphamide
- Tubular and interstitial lesions ([2]; significant at 1.0 and 3.0 mg/kg (compound 5 study)): dose-dependent decrease in tubular and interstitial lesions
- Spleen weight relative to vehicle ([3]; 3 mg/kg PO QD): trended lower
- Spleen weight relative to vehicle ([3]; any dose 0.3, 1.0, 3.0 mg/kg PO QD): lower, but not significant relative to vehicle

SMILES: CC(C)Oc1ccc(-c2nc(-c3cccc4c3CC[C@@H]4N)no2)cc1C#N [compound 148, (S)-5-(3-(1-amino-2,3-dihydro-1H-inden-4-yl)-1,2,4-oxadiazol-5-yl)-2-isopropoxy-benzonitrile]
- Reduction of overall lymphocyte counts relative to vehicle ([4]; whole blood at 23, 31 and 36.5 weeks, all three doses (0.3, 1.0, 3.0 mg/kg PO QD), p<0.05): > 90%
- CD4+ T cell and CD8+ T cell counts relative to cyclophosphamide ([4]; whole blood, flow cytometry): Significant reductions
- Kidney TLT scores compared to naïve mice ([5]; 1.0 mg/kg or 3.0 mg/kg PO QD): TLT scores similar to naïve mice
- Kidney TLT scores relative to vehicle ([5]; 0.3, 1.0, 3.0 mg/kg PO QD, p<0.05, lesser degree than cyclophosphamide): significantly reduced TLT scores relative to vehicle
- Glomerular lesion score ([2]; 0.3 mg/kg PO QD (compound 148 study)): glomerular lesion score similar to that of the vehicle control
- Severity of glomerular lesions ([2]; 1.0 mg/kg and 3.0 mg/kg PO QD (compound 148 study)): dose-independent decrease in the severity of glomerular lesions
- Tubular and interstitial lesions ([2]; p<0.05 (compound 148 study)): dose-dependent decrease in tubular and interstitial lesions; also recorded: not statistically different from treatment with cyclophosphamide
- Combined kidney lesion score (glomerular plus tubular and interstitial) vs vehicle ([2]; all three treatment groups 0.3, 1.0, 3.0 mg/kg PO QD): dose-related decrease in combined kidney lesion score
- Spleen weight relative to vehicle ([3]; all groups 0.3, 1.0, 3.0 mg/kg PO QD): significantly lower
- Kidney mRNA level of CCL5 relative to control [6]: decreased levels
- Kidney mRNA level of CXCL9 relative to control [6]: decreased levels
- Kidney mRNA level of CXCL10 relative to control [6]: decreased levels
- Kidney mRNA level of IL-1β relative to control [6]: decreased levels
- Kidney mRNA level of IL-10 relative to control [6]: decreased levels
- Kidney mRNA level of TNFSF13b/BAFF relative to control [6]: decreased levels
- Serum IFNα levels compared to vehicle [7]: lower serum IFNα levels compared to vehicle
- MFI of IFNAR1 expression in pDC cells [8]: very little difference between the groups
- Percent surface expression of IFNAR1 in pDC cells [8]: very little difference between the groups
